Data taken from patent publication US8835506B2, “Methods and related compositions for the treatment of cancer” (STC.UNM, priority 2008, dated 2014).
“Also recorded” adds a separate entry of the source.

How the values were obtained:
[1] = test system: PC3 human prostate cancer cells; assay: Light microscopy of intracellular granularity; type: cell-based; conditions: FIG. 3
From the text: (§1) Microscopic and Flow Cytometric Scatter Analysis: Light microscopy images of prostate cancer cells in culture were collected using an Olympus IX70 inverted microscope and a 20× objective. Flow cytometric analysis of forward scatter (FSC) and side scatter (SSC) were preformed using the UNM Shared Flow Cytometry Resource on a Cytomation Mo Flo, an Epics Elite, a Becton Dickinson FACScan, or a Becton Dickinson FACS Calibur.

prostate cancer cells = assay: Cell death of human cancer cells cultured with AST; type: cell-based
Method: (§2) Cell Viability Assays: Two assays were used to determine cell viability; propidium iodide exclusion with flow cytometry and trypan blue exclusion with hemacytometry. Cells were treated with astemizole at the indicated concentrations for 24 to 96 hours prior to viability analysis. For propidium iodide cell viability determinations, cells were removed from the dishes with 0.05% trypsin. All cell culture medium was collected for the analysis in order to include any cells that may have released from the plate during the incubation period. Propidium iodide was added at a final concentration of 2 μg/ml and cells were analyzed on a Becton Dickinson FACScan flow cytometer. For trypan blue dye exclusion studies, all cell culture medium and cells removed by trypsinization were collected as above. An aliquot of these cells was re-suspended in 0.4% trypan blue. Both viable and non-viable cell counts were obtained by manual counting using a hemacytometer and light microscopy.

LAPC4 cells = assay: Cell proliferation assay (CyQUANT NF); type: cell-based, human; conditions: FIG. 7, 4 days
Method: (§3) Cell Proliferation Assay: To determine the number of proliferating cells after astemizole treatment, cells were seeded in 96-well tissue culture plates at 5,000 cells per well in 100 uL of DMEM/FCS. Two days after plating, cells were treated with astemizole at the indicated concentrations. Four days after treatment, cell proliferation was determined using the CyQUANT NF Cell Proliferation Assay Kit (Invitrogen, Carlsbad, Calif.) according to the kit instructions.

LNCaP cells [2] = assay: Cell proliferation assay (CyQUANT NF); type: cell-based, human; conditions: FIG. 7, 4 days
Method: as §3

PC3 cells [3] = assay: Cell proliferation assay (CyQUANT NF); type: cell-based, human; conditions: over a 4 day period
Method: as §3

DU145 cells = assay: Cell proliferation assay (CyQUANT NF); type: cell-based, human; conditions: FIG. 7, 4 days
Method: as §3

[4] = cited from earlier work
LNCaP cells [5] = assay: HyperCyt high-throughput flow cytometry, side scatter as endpoint for intracellular granularity; cell death seen as adherent cells becoming non-adherent; type: cell-based, human
Method: HyperCyt and High-throughput Data Analysis: The HyperCyt® cytometry analysis system interfaces a flow cytometer and an autosampler. While the sampling probe moves from well to well, a peristaltic pump sequentially aspirates a small volume from each well. A bubble of air, created by the continuously running pump, separates samples from individual wells. Sample and bubble volumes are determined by the time the sampling probe is in a well (sip time) or in taking air while moving from well to well (up time). HyperCyt® sampling of a single 384-well plate is completed in less than 15 minutes. This system has been validated using cell-based high-throughput endpoint assays for ligand binding, surface antigen expression, and immunophenotyping.
The air-bubble separated samples, collected by HyperCyt®, are delivered continuously to the cytometer. The data accumulates as a single, time-resolved file with gaps corresponding to air-bubbles. Both forward and side light scattering properties of treated LNCaP cells were measured using a 488 nm laser. Time-resolved data were analyzed by proprietary software (IDLQuery) set to search for 384 separate data clusters. Data from negative (0.1% DMSO) replicate wells were pooled and used to set gates that define granularity in vehicle-treated LNCaP cells. […] A gate is set reflecting this distinction that is then applied to each data cluster. These values are automatically exported to a Microsoft Excel spreadsheet template that calculates percent side scatter shift in individual treated samples.
as §1

[6] = in vivo; cited from earlier work
[7] = rare cases, patients exceeding recommended doses; cited from earlier work
[8] = test system: LNCaP human prostate cancer cells; assay: Cytotoxicity of AST in culture; type: cell-based
Method: as §2

[9] = test system: 22Rv1 prostate cancer cells; assay: Viability by trypan blue exclusion, astemizole alone or with docetaxel or radiation; type: cell-based, human; set-up: key to action determined with combination therapy: &: Additive action determined with combination therapy.; #: Synergistic action determined with combination therapy; conditions: for level of cell killing in combination: 24 hours
Method: as §2
Compounds according to the present invention may also function as radiosensitizers in addition to their anticancer activity. A study was performed showing prostate cancer cell killing actions of astemizole in combination with other therapeutic interventions. Astemizole alone produced a decrease in 22Rv1 prostate cancer cell viability with 8 μM 24 hours after treatment. […] This is true of the other agents which are described herein.

skin cancer cells (SCC) = assay: Cell death by trypan blue uptake and hemacytometry; type: cell-based; conditions: AST up to 15 μM; listed as AST
Method: as §2

[10] = test system: CWRv22 human prostate cancer cells; assay: Cell death by trypan blue uptake and hemacytometry; type: cell-based
Method: as §2

[11] = test system: LAPC4 human prostate cancer cells; assay: Cell death by trypan blue uptake and hemacytometry; type: cell-based
Method: as §2

[12] = cited from earlier work; remark: listed apart in the source
PC3 cells [13] = assay: Hypodiploid population by propidium iodide incorporation and flow cytometry (apoptosis hallmarks); type: cell-based, human
From the text: Multiple mechanisms could account for the cell death observed in cancer cells from treatment with AST. […] Thus, administering the agents identified above that induce intracellular granularity in cancer cells may produce cell death through an autophagic mechanism.

[14] = test system: LC3 II band in CWRv22 cells; assay: LC3 II band induction (autophagy marker); type: cell-based, human; conditions: 10 μM AST, 6 hours
[15] = test system: PC3 androgen-independent human prostate cancer cells; assay: Cell death by trypan blue uptake; type: cell-based
Method: as §2

advanced prostate cancer = advanced prostate cancer patients, on average; cited from earlier work

1-[(4-fluorophenyl)methyl]-N-[1-[2-(4-ethoxyphenyl)ethyl]-4-piperidyl]benzoimidazol-2-amine [Astemizole]
intracellular granularity observed by light microscopy [1]: increase in intracellular granularity
concentration at which cells undergo rapid cell death (prostate cancer cells): above 5 μM
prostate cancer cell growth (LAPC4 cells): significant reduction
prostate cancer cell growth (LNCaP cells [2]): significant reduction
concentration inhibiting cell growth (PC3 cells [3]): ≥ 1 µM
prostate cancer cell growth (DU145 cells): significant reduction
protein binding [4]: around 96%
cancer cell intracellular granularity by SSC flow cytometry (LNCaP cells [5]; FIG. 2, prostate cancer cells): significantly increase
dose at which cell death is seen (LNCaP cells [5]; FIG. 4 dose-response): 10 µM
dose range of AST-induced increases in intracellular granularity (LNCaP cells [5]; FIG. 4 dose-response): up to 3 μM
crossing of the blood-brain barrier [6]: does not cross the blood-brain barrier
serious life-threatening cardiovascular adverse events [7]: QT-prolongation, torsades de pointes, and other ventricular arrhythmias
cell killing by AST treatment [8]: dose-response to cell killing
action determined with combination therapy ([9]; 2 μM astemizole + 10 nM docetaxel): &
% Viability, Mean (SD) ([9]; 2 μM astemizole + 10 nM docetaxel, 24 h, n = 3): 71.3%
action determined with combination therapy ([9]; 2 μM astemizole + 10 Gy radiation): &
% Viability, Mean (SD) ([9]; 2 μM astemizole + 10 Gy radiation, 24 h, n = 3): 63.5%
% Viability, Mean (SD) ([9]; 2 μM astemizole alone, 24 h, n = 3): 88.2 (4.9) %
action determined with combination therapy ([9]; 4 μM astemizole + 10 nM docetaxel): &
% Viability, Mean (SD) ([9]; 4 μM astemizole + 10 nM docetaxel, 24 h, n = 3): 74.4%
action determined with combination therapy ([9]; 4 μM astemizole + 10 Gy radiation): #
% Viability, Mean (SD) ([9]; 4 μM astemizole + 10 Gy radiation, 24 h, n = 3): 57.4%
% Viability, Mean (SD) ([9]; 4 μM astemizole alone, 24 h, n = 3): 90.6 (1.2) %
action determined with combination therapy ([9]; 8 μM astemizole + 10 nM docetaxel): &
% Viability, Mean (SD) ([9]; 8 μM astemizole + 10 nM docetaxel, 24 h, n = 3): 49.7%
action determined with combination therapy ([9]; 8 μM astemizole + 10 Gy radiation): #
% Viability, Mean (SD) ([9]; 8 μM astemizole + 10 Gy radiation, 24 h, n = 3): 22.2%
% Viability, Mean (SD) ([9]; 8 μM astemizole alone, 24 h, n = 3): 64.3 (8.1) %
cell viability, astemizole alone ([9]; 8 μM, 24 hours after treatment): decrease
level of cell killing in combination ([9]; 2, 4 and 8 μM astemizole with 10 nM docetaxel): additive levels of cell killing
level of cell killing in combination ([9]; 2, 4 and 8 μM astemizole with 10 gray radiation): synergistic levels of cell killing
cell death by AST treatment (skin cancer cells (SCC)): resistant to cell death; also recorded: not killed
cell killing by AST treatment [10]: dose-response to cell killing
cells dead ([10]; 6 μM AST, within 24 hours): 80%
cell killing by AST treatment [11]: dose-response to cell killing
cells dead ([11]; 6 μM AST, within 24 hours): 80%
absorption ([12]; from the gastrointestinal tract): rapidly absorbed
excretion ([12]; man): excreted as metabolites chiefly in the feces
half-life of the active ingredient ([12]; man): approximately 1 day
metabolism ([12]; man): extensively metabolized
hallmarks of apoptotic cell death (hypodiploid population) (PC3 cells [13]): does not produce hallmarks of apoptotic cell death
LC3 II band associated with autophagic pathways [14]: induction of an LC3 II band
LC3 II band associated with autophagic pathways ([14]; listed as AST): increase in the LC3 II band
time to cell death after treatment [15]: ≤ 24 h
cell death ([15]; 10 μM AST, 48 hours): greater than 25%
cells dead ([15]; 15 μM AST, 48 hours): ~100%

CC(=O)O[C@@]12CO[C@@H]1C[C@H](O)[C@@]1(C)C(=O)[C@H](O)C3=C(C)[C@@H](OC(=O)[C@H](O)[C@@H](NC(=O)OC(C)(C)C)c4ccccc4)C[C@@](O)([C@@H](OC(=O)c4ccccc4)[C@H]21)C3(C)C [Taxotere]
prolongation of life (advanced prostate cancer): 2.5 months

CC(=O)O[C@@]12CO[C@@H]1C[C@H](O)[C@@]1(C)C(=O)[C@H](O)C3=C(C)[C@@H](OC(=O)[C@H](O)[C@@H](NC(=O)OC(C)(C)C)c4ccccc4)C[C@@](O)([C@@H](OC(=O)c4ccccc4)[C@H]21)C3(C)C [docetaxel]
viability at 0.01 µM ([9]; Homo sapiens, 22Rv1, 10 nM docetaxel alone (0 μM astemizole), 24 h, n = 3, read-out: % Viability, Mean (SD)): 80.7%
